From US20240279205A1, “NOVEL BENZIMIDAZOLE DERIVATIVE” (Carna Biosciences, Inc., priority 2020, published 2024)
Where a name gives a salt, the structure may show the parent alone.

Experiments:
[1] = molecular target: T1, human STING (hSTING) (Homo sapiens, UniProt Q86WV6); test: Inhibition test of intracellular human STING (hSTING) pathway using SEAP reporter cells (HEK-Blue ISG), stimulation with Compound 3; type: cell-based; parameters: hSTING inhibitory activity: scale not given here; conditions: Compound 3 10 nM stimulation, 21 hours
T1 construct: host or cells: HEK-Blue ISG cells (HEK293-derived SEAP reporter line)
In short: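 HEK-Blue ISG cells with IRF-inducible SEAP reporter, pretreated 1 h with compound (final 0.1 to 10 μM), then stimulated with Compound 3 (final 10 nM) for 21 h at 37° C. Supernatant SEAP measured colorimetrically; IC50 from log-concentration regression, normalized to stimulated (100%) and unstimulated (0%) controls.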

[2] = tested on: STING activation (IFN-β production in THP-1 cells); test: Human IFN-β production inhibition test by cGAMP stimulation in THP-1 cells; type: cell-based; parameters: IFN-β bioinhibitory activity: scale not given here; conditions: 2'3'-cGAMP transfection, 18 hours, IFN-β ELISA; for IC50: Homo sapiens, read-out: IFN-β bioinhibitory activity
Method: Human IFN-β production inhibition test by cGAMP stimulation
The inhibitory activity of test compounds against STING activation was evaluated by measuring the amount of IFN-β produced when human monocytic cell line THP-1 cells were stimulated with the endogenous ligand cGAMP.
After seeding THP-1 cells (ATCC) in a 96-well plate, PMA (Santa Cruz Biotechnology) adjusted to a concentration of 100 nM after addition was added, and incubated at 37° C. in a 5% CO2 incubator. It was cultured overnight (RPMI1640 medium containing 10% FBS, 50 U/mL penicillin/50 μg/mL streptomycin). A test compound solution adjusted to a final concentration of 0.001 to 1 μM was added to each well of this plate and cultured for 1 hour in a CO2 incubator (DMSO final concentration 0.1%). 0.12 μg/well of 2′3′-cGAMP (Invivogen, #tlrl-nacga23) was introduced into the cells by transfection using Lipofectamine2000 (Invitrogen) and cultured in a CO incubator for an additional 18 hours. After collecting the culture supernatant from each well, the amount of human IFN-β produced in the culture supernatant was measured by ELISA using R&D human IFN-β Duoset (R&D Systems).
Assuming that the human IFN-β production amount of the test compound-free and cGAMP-added group is 100%, and the human IFN-β production amount of the test compound-free and cGAMP-free group is 0%, the IC50 value was determined by regression analysis of the inhibitory rate determined from the amount of human IFN-β production at each compound concentration and the concentration of the test compound (logarithm).

T1 sequence (Q86WV6 whole entry H232R): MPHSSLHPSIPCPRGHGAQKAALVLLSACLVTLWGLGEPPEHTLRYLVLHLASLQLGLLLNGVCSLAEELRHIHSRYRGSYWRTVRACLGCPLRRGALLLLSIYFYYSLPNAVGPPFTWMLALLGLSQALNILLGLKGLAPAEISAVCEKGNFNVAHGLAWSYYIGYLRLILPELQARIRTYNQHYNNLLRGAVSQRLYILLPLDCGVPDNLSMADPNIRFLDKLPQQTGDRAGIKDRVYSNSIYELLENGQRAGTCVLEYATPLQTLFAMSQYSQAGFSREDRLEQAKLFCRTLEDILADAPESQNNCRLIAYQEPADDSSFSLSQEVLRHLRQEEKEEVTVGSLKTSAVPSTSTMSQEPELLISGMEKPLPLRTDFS

| hSTING inhibitory activity [1] | IC50 [2] | IC50 ([1]; read-out: hSTING inhibitory activity) | Compound | IFN-β bioinhibitory activity [2] |
| --- | --- | --- | --- | --- |
| * * * | – | – | FC(F)(F)c1ccc2c(c1)nc(Nc1c[nH]c3ccc(Cl)cc13)n2C1CC1 [Embodiment 57, N-(5-chloro-1H-indol-3-yl)-1-cyclopropyl-5-(trifluoromethyl)-1H-benzo[d]imidazol-2-amine] | * * |
| * * | – | – | Brc1ccc2[nH]cc(Nc3nc4c(Br)cccc4[nH]3)c2c1 [Example 24, 4-bromo-N-(5-bromo-1H-indol-3-yl)-1H-benzo[d]imidazol-2-amine] | * * |
| * * * | – | – | Fc1ccc(Oc2ccc3nc(Nc4c[nH]c5ccc(Cl)cc45)n(C4CC4)c3c2)cc1 [Embodiment 196, N-(5-Chloro-1H-indol-3-yl)-1-cyclopropyl-6-(4-fluorophenoxy)-1H-benzo[d]imidazol-2-amine] | * * |
| * * | – | – | Clc1ccc2[nH]cc(Nc3nc4cc(C5CC5)ccc4[nH]3)c2n1 [Embodiment 129, N-(5-Chloro-1H-pyrrolo[3,2-b]pyridin-3-yl)-5-cyclopropyl-1H-benzo[d]imidazol-2-amine] | * * |
| * * * | – | – | C#Cc1ccc2[nH]cc(Nc3nc4cc(Oc5ccccc5)ccc4[nH]3)c2n1 [Embodiment 111, N-(5-ethynyl-1H-pyrrolo[3,2-b]pyridin-3-yl)-5-phenoxy-1H-benzo[d]imidazol-2-amine formate] | * * |
| * * * | – | – | FC(F)(F)c1ccc2c(c1)nc(Nc1c[nH]c3ccc(Cl)cc13)n2CC1CC1 [Embodiment 215, N-(5-Chloro-1H-indol-3-yl)-1-(cyclopropylmethyl)-5-(trifluoromethyl)-1H-benzo[d] imidazol-2-amine] | * * |
| * * | 0.1 to 1 µM | – | COc1cc2c(cc1C(F)(F)F)nc(Nc1c[nH]c3ccc(Cl)cc13)n2C [Embodiment 263, N-(5-Chloro-1H-indol-3-yl)-6-methoxy-1-methyl-5-(trifluoromethyl)-1H-benzo[d]imidazol-2-amine] | – |
| * * * | – | – | Cn1c(Nc2c[nH]c3ccc(Cl)cc23)nc2cc(C(F)(F)F)c(F)cc21 [Embodiment 254, N-(5-Chloro-1H-indol-3-yl)-6-fluoro-1-methyl-5-(trifluoromethyl)-1H-benzo[d]imidazol-2-amine] | * * |
| * * | – | – | FC(F)(F)c1ccc2c(c1)nc(Nc1c[nH]c3ccc(I)cc13)n2C1CC1 [Embodiment 232, 1-Cyclopropyl-N-(5-iodo-1H-indol-3-yl)-5-(trifluoromethyl)-1H-benzo[d]imidazol-2-amine] | * * |
| * * | 0.1 to 1 µM | – | Cc1cc2nc(Nc3c[nH]c4ccc(Br)nc34)[nH]c2cc1C [Embodiment 79, N-(5-bromo-1H-pyrrolo[3,2-b]pyridin-3-yl)-5,6-dimethyl-1H-benzo[d]imidazol-2-amine] | – |
| * * * | 0.1 to 1 µM | – | CC(C)n1c(Nc2c[nH]c3ccc(Cl)nc23)nc2ccc(Oc3ccccc3)cc21 [Embodiment 117, N-(5-Chloro-1H-pyrrolo[3,2-b]pyridin-3-yl)-1-isopropyl-6-phenoxy-1H-benzo[d]imidazol-2-amine] | – |
| * * | 0.1 to 1 µM | – | CCc1ccc2[nH]cc(Nc3nc4ccc(Oc5ccc(F)cc5)cc4n3C)c2n1 [Embodiment 192, N-(5-ethyl-1H-pyrrolo[3,2-b]pyridin-3-yl)-6-(4-fluorophenoxy)-1-methyl-1H-benzo[d]imidazole-2-amine formate] | – |
| * * | 0.1 to 1 µM | – | Cn1c(Nc2c[nH]c3ccc(Cl)nc23)nc2ccc(Oc3ccccc3)cc21 [Embodiment 44, N-(5-chloro-1H-pyrrolo[3,2-b]pyridin-3-yl)-1-methyl-6-phenoxy-1H-benzo[d]imidazol-2-amine] | – |
| * * * | – | – | FC(F)(F)Oc1ccc2c(c1)nc(Nc1c[nH]c3ccc(Cl)cc13)n2C1CC1 [Embodiment 231, N-(5-Chloro-1H-indol-3-yl)-1-cyclopropyl-5-(trifluoromethoxy)-1H-benzo[d]imidazol-2-amine] | * * |
| * * | – | – | FC(F)(F)c1ccc2[nH]c(Nc3c[nH]c4ccc(Cl)cc34)nc2c1 [Embodiment 268, N-(5-Chloro-1H-indol-3-yl)-5-(trifluoromethyl)-1H-benzo[d]imidazol-2-amine] | * * |
| – | 0.1 to 1 µM | 1 to 10 µM | Clc1ccc2[nH]cc(Nc3nc4c(C5=CCOCC5)cccc4[nH]3)c2n1 [Embodiment 149, N-(5-chloro-1H-pyrrolo[3,2-b]pyridin-3-yl)-4-(3,6-dihydro-2H-pyran-4-yl)-1H-benzo[d]imidazol-2-amine] | – |
| * * | 0.1 to 1 µM | – | Clc1ccc2[nH]cc(Nc3nc4cc(C#CC5CC5)ccc4[nH]3)c2n1 [Embodiment 125, N-(5-Chloro-1H-pyrrolo[3,2-b]pyridin-3-yl)-5-(cyclopropylethynyl)-1H-benzo[d]imidazol-2-amine] | – |
| * * | 0.1 to 1 µM | – | C=Cc1ccc2[nH]cc(Nc3nc4ccc(Oc5ccc(F)cc5)cc4n3C)c2n1 [Embodiment 191] | – |
| * * | ≥ 1 µM | – | COc1ccnc2c(Nc3nc4cc(Oc5ccccc5)ccc4[nH]3)c[nH]c12 [Embodiment 77, N-(7-Methoxy-1H-pyrrolo[3,2-b]pyridin-3-yl)-5-phenoxy-1H-benzo[d]imidazol-2-amine formate] | – |
| * * * | – | – | Brc1ccc2[nH]cc(Nc3nc4cc(I)ccc4[nH]3)c2n1 [Embodiment 80, N-(5-bromo-1H-pyrrolo[3,2-b]pyridin-3-yl)-5-iodo-1H-benzo [d]imidazol-2-amine] | * * * |
| * * * | – | – | CN(C)n1c(Nc2c[nH]c3ccc(Cl)cc23)nc2cc(C(F)(F)F)ccc21 [Embodiment 216, N2-(5-Chloro-1H-indol-3-yl)-N1,N1-dimethyl-5-(trifluoromethyl)-1H-benzo[d]imidazole-1,2-diamine] | * * * |
| * * * | – | – | CN(C)n1c(Nc2c[nH]c3ccc(Cl)cc23)nc2cc(OC(F)(F)F)ccc21 [Embodiment 258, N2-(5-Chloro-1H-indol-3-yl)-N1, N1-dimethyl-5-(trifluoromethoxy)-1H-benzo[d]imidazole-1,2-diamine] | * * |
| * * | – | – | CC(C)=Cc1ccc2[nH]c(Nc3c[nH]c4ccc(Cl)nc34)nc2c1 [Embodiment 128, N-(5-chloro-1H-pyrrolo[3,2-b]pyridin-3-yl)-5-(2-methylprop-1-en-1-yl)-1H-benzo[d]imidazole-2-amine] | * * * |
| * * | 0.1 to 1 µM | – | OCCCn1c(Nc2c[nH]c3ccc(Cl)cc23)nc2cc(C(F)(F)F)ccc21 [Embodiment 260, 3-{2-[(5-Chloro-1H-indol-3-yl)amino]-5-(trifluoromethyl)-1H-benzo [d]imidazol-1-yl]propan-1-oar] | – |
| * * * | 0.1 to 1 µM | – | Clc1cnc2[nH]cc(Nc3nc4cc(Oc5ccccc5)ccc4[nH]3)c2c1 [Embodiment 73, N-(5-Chloro-1H-pyrrolo[2,3-b]pyridin-3-yl)-5-phenoxy-1H-benzo[d]imidazol-2-amine formate] | – |
| * * * | – | – | CNn1c(Nc2c[nH]c3ccc(Cl)cc23)nc2cc(C(F)(F)F)ccc21.Cl [Embodiment 255, N2-(5-Chloro-1H-indol-3-yl)-N1-methyl-5-(trifluoromethyl)-1H-benzo[d]imidazole-1,2-diamine hydrochloride] | * * |
| * * | – | – | FC(F)(F)c1ccc2c(c1)nc(Nc1c[nH]c3ccc(Cl)cc13)n2C1COC1 [Embodiment 226, N-(5-Chloro-1H-indol-3-yl)-1-(oxetan-3-yl)-5-(trifluoromethyl)-1H-benzo[d]imidazol-2-amine] | * * |
| * * | ≥ 1 µM | – | c1ccc(Oc2ccc3[nH]c(Nc4c[nH]c5c(-c6ccccc6)ccnc45)nc3c2)cc1 [Embodiment 54, 5-phenoxy-N-(7-phenyl-1H-pyrrolo[3,2-b]pyridin-3-yl)-1H-benzo[d]imidazol-2-amine] | – |
